What all share (type): in vivo, C57Bl/6 (B6) mice
Assay [1] deals with experimental MMP mouse model (anti-mLAMα3 IgG induced). The assay is described as follows: Conjunctival lesions by lesional histopathology (H&E) of palpebral conjunctiva in antibody transfer-induced experimental MMP. To be noted: for overall therapeutic effect in diseased mice: administered topically twice a day, days 12 and 28; for subepithelial inflammatory infiltrate, semi-quantification of H&E stained palpebral conjunctival biopsies / palpebral conjunctival split formation (conjunctiva score): vs vehicle; for palpebral conjunctival split formation (conjunctiva score): score 0-4. An excerpt: (§1) Adult C57Bl/6 (B6) mice (male and female) aged at least 6 weeks old were used. Animals were maintained on a 12-h light-dark cycle at the animal facility of the University of Lübeck. Mice were held under SPF conditions and fed acidified drinking water and standard chow ad libitum. Protocols were approved by the Animal Rights Commission of the Ministry of Agriculture and Environment, Schleswig-Holstein.
For production of anti-mLAMα3 IgG, New Zealand White rabbits were immunized subcutaneously with […] of an equimolar mixture of the 2 purified recombinant proteins (aa1656-1985 and aa2756-3330 of murine Laminin alpha3 chain, produced in E. coli as disclosed by Heppe, E. N., et al., J Invest Dermatol, 2017, 137, 1709-1718) suspended in complete Freund's adjuvant. The animals were boosted twice with the same protein preparation in incomplete Freund's adjuvant. Immune sera were obtained at regular intervals and characterized by IF microscopy on cryosections of murine skin. IgG from rabbits immunized with recombinant fragments of murine mLAMα3 and from non-immunized rabbits was purified by affinity chromatography using protein G sepharose affinity chromatography (Amersham Biosciences, Heidelberg, Germany). Reactivity of IgG fractions was analyzed by IF microscopy on murine skin (Sitaru et al., J Immunol 2006, 177: 3461-8). In addition, each batch of anti-mLAMα3 IgG was characterized in vivo regarding its capability to induce experimental MMP in C57Bl/6 (B6) mice (WP1.1). From this experiment, the amount of antibodies that leads to moderate experimental MMP was determined; i.e. the amount needed to induce disease development with moderate involvement of the conjunctiva (i.e. score of 1-3 in a maximum of 50% of the animals on day 12) in the model of antibody transfer-induced MMP. For this purpose, the intensity of the separation of the conjunctiva is determined histologically. The body surface area affected should be between 3-8% at the concentration used. The conjunctiva score was set histologically post-mortem and was in a range of 0-4, depending on the intensity of the separation of the conjunctiva. The amount needed was determined to be 5 mg/injection of anti-mLAMα3 IgG.
To test DF2156A at 0.5% and reparixin at 0.5% effects on the severity of conjunctival involvement in experimental MMP, the disease was induced by repetitive subcutaneous (s.c.) injections of anti-mLAMα3 IgG (5 mg/mouse) on alternating days (0, 2, ( . . . ) and 10) into adult B6 mice, which were treated throughout the entire experiment twice a day via eyedrops. Three eyedrops per eye were given twice daily. Mice treated with solvent via eyedrops or methylprednisolone (MP) via i.p. injections were used as treatment controls. Mice s.c. injected with IgG isolated from normal rabbit serum (NR IgG) served as negative control.
The primary endpoint of this experiment was the extent of conjunctival lesions as determined by lesional histopathology (H&E stain) on day 12 and 28 following an established scoring system (Heppe, E. N., et al., J Invest Dermatol, 2017, 137, 1709-1718). In detail, biopsies from the palpebral conjunctiva were taken on day 12 and day 28 and paraffine embedded. 4.5 μm thick sections from 3 different depths of the biopsies were cut in triplicate and H&E stained for further quantification. Among the H&E stained histologies those with a palpebral conjunctival-epithelium with more than 1000 μm were used for quantification. For this score the length of the split formation (split=epithelia separation from the underlying dermal structures) is measured. The split length is categorized to a score of 0-4 with no split=0, less than 100 μm=1, less than 200 μm=2, less than 300 μm=3, more or equal 300 μm=4. Splits that occurred at the end of the tissue were excluded, because they were most likely to be of artificial nature due to the cutting. The longest split out of 9 possible sections is decisive for the final score. […]

Assay [2] has the same test system. The assay is described as follows: Macroscopic affected eye area in experimental MMP. To be noted: DF2156A topical eyedrops, MP i.p. once daily.
Source text: as §1
For production of anti-mLAMα3 IgG, New Zealand White rabbits were immunized subcutaneously with […] of an equimolar mixture of the 2 purified recombinant proteins (aa1656-1985 and aa2756-3330 of murine Laminin alpha3 chain, produced in E. coli as disclosed by Heppe, E. N., et al., J Invest Dermatol, 2017, 137, 1709-1718) suspended in complete Freund's adjuvant. […] Reactivity of IgG fractions was analyzed by IF microscopy on murine skin (Sitaru et al., J Immunol 2006, 177: 3461-8). […] From this experiment, the amount of antibodies that leads to moderate experimental MMP was determined; i.e. the amount needed to induce disease development with moderate involvement of the conjunctiva (i.e. score of 1-3 in a maximum of 50% of the animals on day 12) in the model of antibody transfer-induced MMP. For this purpose, the intensity of the separation of the conjunctiva is determined histologically. […] The amount needed was determined to be 5 mg/injection of anti-mLAMα3 IgG. […]

Assay [3] shares this test system. The assay is described as follows: Severity of oral lesions by endoscopy (oral score) in experimental MMP. To be noted: day 28; vs vehicle; DF2156A eyedrops, MP i.p.; maximum score 4.
The mark [4] stands for this setting: day 12, 0.5% eyedrops twice daily.
Setting [5] is: day 28, 0.5% eyedrops twice daily.
The mark [6] stands for this setting: day 28, 0.5% eyedrops twice daily, listed as Reparixin.

Entries after “also recorded” stand apart in the source; their conditions may differ.

We go through 2 molecules from US20260216292A1, “CXCL8 INHIBITORS FOR USE IN THE TREATMENT OF OCULAR MUCOUS MEMBRANE PEMPHIGOID AND/OR ORAL MUCOUS MEMBRANE PEMPHIGOID” (DOMPE' FARMACEUTICI SPA, priority 2023, published 2026).

Regarding `C[C@@H](C(=O)NS(C)(=O)=O)c1ccc(OS(=O)(=O)C(F)(F)F)cc1` [DF2156A, R(−)-2-[(4-trifluoromethanesulfonyloxy)phenyl]-N-methanesulfonyl propionamide], the “overall therapeutic effect in diseased mice” value in assay [1] is recorded as “overall benefit”. Further, the “subepithelial inflammatory infiltrate, semi-quantification of H&E stained palpebral conjunctival biopsies” value in assay [1] (setting [4]) is recorded as “reduced”; in assay [1] (setting [5]), “decreased; also recorded: improvement”. Besides, the “palpebral conjunctival split formation (conjunctiva score)” value in assay [1] (day 12, DF2156A 0.5% or reparixin 0.5% eyedrops twice daily) is “significant reduction; also recorded: improvement”; in assay [1] (setting [5]), “significant reduction; also recorded: improvement”. Besides, in assay [2] (day 12), the “extent of macroscopic affected eye area” value is on record as “reduction”. Further, the “extent of affected eye area (AUC over 28 days)” value in assay [2] (day 28) is “reduction”. In addition, the “severity of oral lesions (oral score)” value in assay [3] was “decreased”.

Turning to `CC(C)Cc1ccc([C@@H](C)C(=O)NS(C)(=O)=O)cc1` [reparixin, R-(−)-2-(4-isobutylphenyl)propionyl methansulfonamide], the “overall therapeutic effect in diseased mice” value in assay [1] is “overall benefit; also recorded: slower onset of the therapeutic effect”. Further, the “subepithelial inflammatory infiltrate, semi-quantification of H&E stained palpebral conjunctival biopsies” value was “reduced” in assay [1] (setting [4]), “significantly decreased” in assay [1] (setting [5]) and “reduced” in assay [1] (setting [6]). For the same molecule, the “palpebral conjunctival split formation (conjunctiva score)” value in assay [1] (setting [5]) is “significant reduction”; in assay [1] (setting [6]) it was “reduced”.
